The numbers were not newly measured in patent publication US9307763B2, “Ligands for odor receptors and olfactory neurons” (The Regents of the University of California, priority 2010, dated 2016), which cites them from elsewhere.

This data set concerns CO2 responsive neurons. Conditions: cited from earlier work.
Where [1] appears, read: […], averaged across the top 2 responders of the 4 species.

Where two headings read alike, the source gives them in different places.

Consider `O=CCc1ccccc1` [phenylacetaldehyde], for which the “Final Activity” value under setting [1] is recorded as 3.

For the compound `C=C(C)C1CC=C(C)C(=O)C1` (stereo not shown) [Carvone], the “Final Activity” value under setting [1] is given as 4. As for `CCCCCCCO` [heptanol], under setting [1], the “Final Activity” value is −38. Turning to `Cc1ccc(O)cc1` [4-methylphenol], the “Final Activity” value under setting [1] is on record as 3.

As for `CC12CCC(C1)C(C)(C)C2=O` (stereo not shown) [Fenchone], the “Final Activity” value under setting [1] is −2.

As for `CCC(=O)Cl` [propionyl chloride], under setting [1], the “Final Activity” value is −73. In the case of `COC(=O)C(C)=O` [methyl pyruvate], the “Final Activity” value under setting [1] was −100.

In the case of `OCCCCCO` [1,5-pentanediol], the “Final Activity” value under setting [1] is 0. Take `CCCCCCCC` [octane]: the “Final Activity” value under setting [1] is −34.

`CC(=O)C(C)=O` [2,3-butanedione]: the “Final Activity” value under setting [1] is reported as −99. In the case of `CCCCCC(=O)O` [hexanoic acid], the “Final Activity” value under setting [1] was −16. Turning to `CCCCC=O` [pentanal], the “Final Activity” value under setting [1] was −51.

For `CCCCC(=O)OCC` [ethyl valerate], the “Final Activity” value under setting [1] was 5. For `C/C=C\CCC` [cis-2-hexene], the “Final Activity” value under setting [1] was 5. With `CCCCCCCCOC(C)=O` [octyl acetate], the “Final Activity” value under setting [1] is on record as −15.

Consider `O=Cc1ccccc1` [Benzaldehyde], for which the “Final Activity” value under setting [1] is reported as 6. Consider `COc1ccccc1` [Anisole], for which the “Final Activity” value under setting [1] was 6. With `CCCC=O` [butanal], the “Final Activity” value under setting [1] is −85. In the case of `Cc1cnc(C)cn1` [2,5-dimethylpyrazine], the “Final Activity” value under setting [1] is listed as 26.

On to `CCCCCCC(=O)CC` [3-nonanone], for which the “Final Activity” value under setting [1] is on record as 2. Turning to `CO` [Methanol], the “Final Activity” value under setting [1] is −14. Take `Cc1ccc(C(C)C)c(O)c1` [Thymol]: under setting [1], the “Final Activity” value is 15.

With `CCCCCCCC(=O)O` [octanoic acid], the “Final Activity” value under setting [1] is −21. For the compound `CCC(=O)O` [propionic acid], the “Final Activity” value under setting [1] is listed as −32. Take `CCCCC(=O)O` [pentanoic acid]: the “Final Activity” value under setting [1] was −26. Consider `CCCCC(C)O` (stereo not shown) [2-hexanol], for which the “Final Activity” value under setting [1] is 2. On to `CCCCOC(C)=O` [butyl acetate], for which the “Final Activity” value (in vivo) was −28. As for `CC/C=C\CCO` [cis-3-hexen-1-ol], under setting [1], the “Final Activity” value was 10. Turning to `C=CC(O)CCCC` (stereo not shown) [1-hepten-3-ol], the “Final Activity” value under setting [1] is reported as 0. Turning to `CCCCCC` [hexane], the “Final Activity” value (in vivo) is −25. Turning to `CCCCCCCl` [1-chlorohexane], the “Final Activity” value under setting [1] was 8. Turning to `CCc1ncc(C)nc1C` [2-ethyl-3,5-dimethylpyrazine], the “Final Activity” value under setting [1] is on record as 8. `CCCCCCOC(C)=O` [hexyl acetate]: under setting [1], the “Final Activity” value is given as −12. With `CSCCC=O` [Methional], under setting [1], the “Final Activity” value is 0. In the case of `CC1CCC(C(C)C)C(O)C1` (stereo not shown) [Menthol], the “Final Activity” value under setting [1] was −2. In the case of `C=CCc1ccc(O)c(OC)c1` [Eugenol], the “Final Activity” value under setting [1] is reported as 1.

As for `c1cnccn1` [pyrazine], the “Final Activity” value under setting [1] is recorded as −8. Regarding butanol, the “Final Activity” value (in vivo) is listed as −25.

For the compound `C=CC(O)CCCCC` (stereo not shown) [1-octen-3-ol], under setting [1], the “Final Activity” value was −27.

Turning to `CCCCCCBr` [1-bromohexane], under setting [1], the “Final Activity” value was 3. For the compound `Cc1ccccc1O` [2-methylphenol], under setting [1], the “Final Activity” value was 24. For the compound `O=C1CCCCC1` [Cyclohexanone], under setting [1], the “Final Activity” value is recorded as 48. With `CCOC(C)=O` [Ethyl Acetate], under setting [1], the “Final Activity” value is given as 8. With `CCCCCCCCCO` [Nonanol], the “Final Activity” value under setting [1] is listed as −12. As for `c1ccc2ccccc2c1` [naphthalene], under setting [1], the “Final Activity” value is reported as −14. In the case of `CSCCCC=O` [4-(methylthio)-1-butanal], under setting [1], the “Final Activity” value is −15. For `CC(=O)OCCC(C)C` [Isoamyl Acetate], the “Final Activity” value under setting [1] is −2. For the compound `CCCC(=O)CCC` [4-heptanone], the “Final Activity” value under setting [1] is 2. Turning to `CC(=O)c1cccs1` [2-acetylthiophene], under setting [1], the “Final Activity” value is reported as 31. `CC1CCC(=O)O1` (stereo not shown) [gamma-valerolactone]: the “Final Activity” value under setting [1] is on record as −5. Consider `CC(C)O` [Isopropyl Alcohol], for which the “Final Activity” value under setting [1] was 3. As for `CCCCCCCCO` [octanol], the “Final Activity” value under setting [1] is −35. With `COCC(C)=O` [methoxyacetone], under setting [1], the “Final Activity” value is given as 6. `CCCCCCO` [hexanol]: the “Final Activity” value under setting [1] is recorded as −70. `CCCCCCI` [1-iodohexane]: under setting [1], the “Final Activity” value is recorded as 3. Regarding `CCCCCO` [pentanol], under setting [1], the “Final Activity” value is listed as −41.

With `CC(=O)c1ccccc1` [acetophenone], the “Final Activity” value under setting [1] is recorded as 15. Regarding `CCCCCC(O)CC` (stereo not shown) [3-octanol], the “Final Activity” value under setting [1] is listed as −14. With `CCCCCCC=O` [heptanal], under setting [1], the “Final Activity” value is reported as −21. Take `CC(=O)c1ccccc1` [Phenylethanone]: the “Final Activity” value under setting [1] is 5.

`CC(C)=CCCC(C)CC=O` (stereo not shown) [Citronellal]: under setting [1], the “Final Activity” value was 8.

With `CC(=O)O` [Acetic Acid], the “Final Activity” value (in vivo) was −7.

Turning to `C=CCc1ccc(OC)c(OC)c1` [Eugenol Methyl Ether], under setting [1], the “Final Activity” value is reported as −9. Take `CCCCCCCOC(C)=O` [heptyl acetate]: the “Final Activity” value under setting [1] was −8. Take `c1ccc2[nH]ccc2c1` [Indole]: the “Final Activity” value under setting [1] is given as 21. Turning to `CCC(C)=O` [butanone], the “Final Activity” value under setting [1] is recorded as −25. As to `CCCCC(=O)C(C)C` [2-methyl-3-heptanone], the “Final Activity” value under setting [1] is given as −26. As for `CCO` [Ethanol], under “in vivo”, the “Final Activity” value is listed as −16. Regarding `CCC/C=C/C=O` [(E)2-hexenal], the “Final Activity” value under setting [1] is 0. As to `CCCCCC[SiH3]` [hexylsilane], the “Final Activity” value under setting [1] is on record as 3. Take `C=C(C)[C@H]1CC=C(C)CC1` [Limonene]: the “Final Activity” value under setting [1] is −2. `CCCCCOC(C)=O` [pentyl acetate]: the “Final Activity” value under setting [1] is given as −15. `CC(=O)CF` [fluoroacetone]: under setting [1], the “Final Activity” value was 10. Turning to `Cc1nc(C)c(C)s1` [2,4,5-trimethylthiazole], the “Final Activity” value under setting [1] was 5. `CC=C(C)CC` [3-methyl-2-pentene]: the “Final Activity” value under setting [1] is 5.

`CCCCC(O)CC` (stereo not shown) [3-heptanol]: under setting [1], the “Final Activity” value was −16. As to `CC(=O)C(=O)O` [pyruvic acid], under setting [1], the “Final Activity” value is on record as 2.

In the case of `CCC=O` [propionaldehyde], under setting [1], the “Final Activity” value is given as −68. `CCCCCCS` [1-hexanethiol]: the “Final Activity” value under setting [1] was 3.

For `CCCCCCCC=O` [octanal], under setting [1], the “Final Activity” value was −20.

With `CC(=O)CCO` [4-hydroxy-2-butanone], under setting [1], the “Final Activity” value is reported as −11. As to `CCCCCCC` [heptane], the “Final Activity” value under setting [1] is on record as −29. As for `CCCC(=O)O` [butyric acid], the “Final Activity” value under setting [1] is listed as −94. In the case of `CC(C)=CCCC(C)O` (stereo not shown) [6-methyl-5-hepten-2-ol], the “Final Activity” value under setting [1] is on record as 0. For `CC(C)=CCC/C(C)=C/CO` [Geraniol], under setting [1], the “Final Activity” value is recorded as 8. On to `CCCCC` [pentane], for which the “Final Activity” value under setting [1] is given as −31. Take `Cc1ccc(C)s1` [2,5-dimethylthiophene]: the “Final Activity” value under setting [1] is reported as −9.

Turning to `O=C(c1ccccc1)c1ccccc1` [Benzophenone], the “Final Activity” value under setting [1] is given as 8. With `CCCCCC(C)O` (stereo not shown) [2-heptanol], the “Final Activity” value under setting [1] is −39.

Turning to `CCCNCCO` [2-(propylamino)-ethanol], the “Final Activity” value under setting [1] is −39.

With `c1cscn1` [thiazole], under setting [1], the “Final Activity” value is listed as 100.

For the compound `CCCCCCCC(=O)CC` [3-decanone], the “Final Activity” value under setting [1] was 1. Consider `CCCCCC=O` [hexanal], for which, under setting [1], the “Final Activity” value is reported as −32. Turning to `CCCC(=O)Cl` [butyryl chloride], the “Final Activity” value under setting [1] is −39. `CCCCCCC(=O)O` [heptanoic acid]: under setting [1], the “Final Activity” value was −14. In the case of `c1ccncc1` [pyridine], the “Final Activity” value (in vivo) is 99. Regarding `CCC(=O)C(C)=O` [2,3-pentanedione], the “Final Activity” value under setting [1] is −55.
